{"source": "patent US20190265231A1", "about": "“GPCR (GPR113) INVOLVED IN FAT, FATTY ACID AND/OR LIPID-ASSOCIATED TASTE AND USE IN ASSAYS FOR IDENTIFYING TASTE MODULATORY” (SENOMYX, INC., priority 2015, published 2019)", "key": {"[1]": {"tested_on": "GPR113 KO mice", "assay": "brief-access licking paradigms in WT and GPR113 KO mice", "assay_type": "in vivo", "settings": "for licking response of GPR113 KO mice compared with WT: GPR113 KO versus WT; for licking in response to increasing concentrations: WT mice", "procedure": "FIG. 10 contains mean (±SE) number of licks taken to a range of soybean oil concentrations and the vehicle emplex measured during 5-second trials in wild-type (WT; closed circles) and GPR113 knockout (KO; open circles) mice.\nSeveral groups of mice underwent behavioral testing. […] We also tested groups of mice in brief-access licking paradigms. […] Mineral oil was tested as a control for viscosity."}, "[2]": {"tested_on": "GLX mice", "assay": "brief access licking after glossopharyngeal nerve transection (GLX)", "assay_type": "in vivo", "settings": "C57Bl/6 mice, GLX versus SHAM", "procedure": "C57Bl/6 mice (Harlan) were trained to lick in the brief access licking. Following training mice were balanced for body weight and average number of licks per trial to water during training and assigned to a surgery group. Mice were allowed to recover for at least two weeks following surgery. They were given two days of licking to water (shutter training), food was taken away overnight and they were tested for their licking responses to soybean oil in […] over 2 days of testing. The next week they were tested in the same manner to sucrose. Following the last day of testing, mice were euthanized and their tongues were taken for histological analysis. CV papilla were cross sectioned and stained with hematoxylin/eosin. An observer blind to the surgical condition counted taste buds."}}}
{"smiles": "[Cl-].[K+]", "note": "[KCl]", "values": [{"measurement": "licking response of GPR113 KO mice compared with WT", "setting": "[1]", "result": "responded similarly"}]}
{"smiles": "[Cl-].[Na+]", "note": "[NaCl]", "values": [{"measurement": "licking response of GPR113 KO mice compared with WT", "setting": "[1]", "result": "responded similarly"}]}
{"smiles": "O=C(O)CC(O)(CC(=O)O)C(=O)O", "note": "[citric acid]", "values": [{"measurement": "licking response of GPR113 KO mice compared with WT", "setting": "[1]", "result": "responded similarly"}]}
{"smiles": "CCCCC/C=C\\C/C=C\\CCCCCCCC(=O)O", "note": "[linoleic acid]", "values": [{"measurement": "licking response of GPR113 KO mice compared with WT", "setting": "[1]", "result": "absent or significantly diminished"}, {"measurement": "licking in response to increasing concentrations", "setting": "[1]", "result": "increased licking"}]}
{"smiles": "CCCCCCCC/C=C\\CCCCCCCC(=O)O", "note": "[oleic acid]", "values": [{"measurement": "licking response of GPR113 KO mice compared with WT", "setting": "[1]", "result": "absent or significantly diminished"}, {"measurement": "licking in response to increasing concentrations", "setting": "[1]", "result": "increased licking"}]}
{"smiles": "C=C[C@H]1C[N@@]2CC[C@H]1C[C@H]2[C@H](O)c1ccnc2ccc(OC)cc12", "note": "[quinine]", "values": [{"measurement": "licking response of GPR113 KO mice compared with WT", "setting": "[1]", "result": "responded similarly"}]}
{"smiles": "OC[C@H]1O[C@@](CO)(O[C@H]2O[C@H](CO)[C@@H](O)[C@H](O)[C@H]2O)[C@@H](O)[C@@H]1O", "note": "[sucrose]", "values": [{"measurement": "licking response of GPR113 KO mice compared with WT", "setting": "[1]", "result": "responded similarly"}, {"measurement": "concentration-dependent licking in GLX mice relative to SHAM operated controls", "setting": "[2]", "result": "identical increases in licking"}]}
